Results: ChEMBL document CHEMBL5126536, “Small molecules targeting γ-secretase and their potential biological applications” (Eur J Med Chem, 2022)

What was measured:
[1] = Ratio of drug concentration in Tg2576 mouse brain to plasma at 1 to 30 mg/kg, po; type: ADME, organism-based; conditions: dose 1-30 mg/kg, read-out: BPR
[2] = Toxicity in Sprague-Dawley rat assessed as maximum tolerated dose administered orally upto 28 days consecutively; conditions: in vivo, route po, time < 28 day
[3] = Metabolic stability in human liver microsomes assessed as half life; type: ADME, Microsome
Homo sapiens = organism: Homo sapiens; assay: Selectivity ratio, ratio of IC50 for gamma-secretase (unknown origin) to IC50for Notch (unknown origin)
Gamma-secretase [4] = assay: Inhibition of gamma-secretase (unknown origin) assessed as inhibition of Amyloid beta 42 production by cell-free assay; type: protein-complex assay, Homo sapiens
Gamma-secretase [5] = assay: Inhibition of gamma-secretase (unknown origin) assessed as inhibition of Amyloid beta 40 production by cell-free assay; type: protein-complex assay, Homo sapiens
[6] = Half life in rat; type: ADME; conditions: in vivo
[7] = Oral bioavailability in rat; type: ADME, organism-based; conditions: in vivo
[8] = Modulation of gamma-secretase in human H4 cells expressing APPswe mutant assessed as reduction in amyloid beta 42 by ELISA; type: cell-based
[9] = Inhibition of amyloid beta (unknown origin) production; design: species or system Homo sapiens
[10] = Inhibition of Notch cleavage in transgenic HEK293 cells; type: cell-based; conditions: Homo sapiens
[11] = Inhibition of Notch (unknown origin) by cell-based assay; conditions: Homo sapiens
[12] = molecular target: Amyloid-beta precursor protein (Homo sapiens, UniProt P05067); assay: Modulation of amyloid beta 42 in human H4 cells expressing APP751 incubated overnight by ELISA; type: cell-based
Gamma-secretase [13] = assay: Inhibition of gamma-secretase in human H4 cells assessed as reduction in amyloid beta 42; type: cell-based
[14] = Inhibition of Notch in human H4 cells; type: cell-based
Mus musculus [15] = assay: Antialzheimer activity in Tg2576 mouse model assessed as decrease in amyloid beta 40 level at 10 mg/kg measured on day 8; type: functional; design: scale not given: the % may be the effect or the level left; conditions: time 8 day
Mus musculus [16] = assay: Antialzheimer activity in Tg2576 mouse model assessed as decrease in amyloid beta 42 level at 10 mg/kg measured on day 8; type: functional; design: scale not given: the % may be the effect or the level left; conditions: time 8 day
Mus musculus [17] = assay: Modulation of gamma secretase in hippocampus of C57BL mouse assessed as reduction in amyloid beta 42 at 3 mg/kg, po measured for 0.5 to 18 hrs by ELISA relative to control; type: organism-based; design: scale not given: the % may be the effect or the level left; conditions: time 0.5-18 hrs
Mus musculus [18] = assay: Modulation of gamma secretase in hippocampus of C57BL mouse assessed as reduction in amyloid beta 42 at 10 mg/kg, po measured for 0.5 to 18 hrs by ELISA relative to control; type: organism-based; conditions: filed as modulator, time 0.5-18 hrs

Sequence of Amyloid-beta precursor protein (P05067 whole entry): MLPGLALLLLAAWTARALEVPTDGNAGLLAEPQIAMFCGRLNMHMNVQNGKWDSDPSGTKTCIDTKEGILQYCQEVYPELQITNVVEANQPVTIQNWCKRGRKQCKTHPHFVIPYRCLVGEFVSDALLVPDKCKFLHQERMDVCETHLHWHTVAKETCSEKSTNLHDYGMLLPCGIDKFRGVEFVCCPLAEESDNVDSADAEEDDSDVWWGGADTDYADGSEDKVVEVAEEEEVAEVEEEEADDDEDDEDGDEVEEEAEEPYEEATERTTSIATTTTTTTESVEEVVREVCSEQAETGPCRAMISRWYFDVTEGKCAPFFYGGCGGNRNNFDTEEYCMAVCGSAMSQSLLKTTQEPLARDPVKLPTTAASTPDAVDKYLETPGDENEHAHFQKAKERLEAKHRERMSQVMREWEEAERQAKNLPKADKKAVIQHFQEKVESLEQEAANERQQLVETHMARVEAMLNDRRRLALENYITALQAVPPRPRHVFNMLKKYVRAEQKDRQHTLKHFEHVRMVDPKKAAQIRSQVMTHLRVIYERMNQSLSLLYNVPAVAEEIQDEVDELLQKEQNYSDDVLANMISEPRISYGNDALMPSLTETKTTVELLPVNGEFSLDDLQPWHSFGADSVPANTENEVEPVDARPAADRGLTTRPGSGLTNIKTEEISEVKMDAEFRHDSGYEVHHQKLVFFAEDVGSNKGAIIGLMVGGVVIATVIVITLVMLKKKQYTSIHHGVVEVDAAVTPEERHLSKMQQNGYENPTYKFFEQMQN

With O=S(=O)(N[C@H](CO)C(C(F)(F)F)C(F)(F)F)c1ccc(Cl)s1 [BEGACESTAT] the Kp [1] was > 1, the MTD at 672 h [2] was 2000 mg/kg/day and the half-life [3] was 1.5 h. For the same compound, the Ratio IC50 (Homo sapiens) was 16.8, the EC50 (Gamma-secretase [4]) was 12.4 nM and the EC50 (Gamma-secretase [5]) was 14.8 nM.
O=C(O)C1(c2ccc(-c3ccc(Cl)c(Cl)c3)c(F)c2)CC1 showed a half-life [6] of 20 h, a bioavailability [7] of 50% and an IC50 [8] of 3600 nM.
In the case of C[C@H](NC(=O)[C@@H](O)c1cc(F)cc(F)c1)C(=O)N[C@@H]1C(=O)N(C)c2ccccc2-c2ccccc21, the IC50 [9] is reported as 0.082 nM and the IC50 [10] is reported as 0.39 nM.
With C[C@H](NC(=O)CCC(F)(F)F)C(=O)N[C@@H]1C(=O)N(CCO)c2ncccc2-c2ccccc21 the IC50 [11] was 0.41 nM.
In the case of COc1nc(C2=NOC[C@H](c3cc4ccccc4o3)N2)ccc1-n1cnc(C)c1, the EC50 [12] is reported as 35 nM.
CC(C)[C@H](O)C(=O)N[C@@H](C)C(=O)N[C@@H]1C(=O)N(C)CCc2ccccc21 gave an IC50 (Gamma-secretase [13]) of 10.9 nM, an IC50 [14] of 14.1 nM and an Activity (Mus musculus [15]) of 22%. For the same compound, the Activity (Mus musculus [16]) was 22%.
Work on COc1cc(-c2nnc3n2CCC[C@]3(Oc2cc(F)c(F)c(F)c2)C(C)(C)O)ccc1-c1cnc(C)o1 yielded an Activity (Mus musculus [17]) of 23.2% and an inhibition (Mus musculus [18]) of 46.5%.
